Reference: patent US6992072B2, “Combating side-effects” (Pharma Nord ApS, priority 2001, dated 2006)

How the values were obtained:
Assay type in all cases: cell-based, human
[1] = test system: mitochondrial DNA (mtDNA); experiment: Quantification of mitochondrial DNA by Southern Blot (M/N ratio) in HepG2 cells; details: ddC 177 nM; for Content of mitochondrial DNA, M/N-ratio in % of the control: control = HepG2-cells without ddC and without uridine
Method: Cell culture. The HepG2 cell line, a human hepatoma cell line, is taken from the American Type Culture Collection (ATCC No. HB-8065). It is cultured at 37° C. in a 5% CO2 atmosphere. The culture medium is Dulbecco's Modified Eagle Medium (DMEM-containing 4.5 g/l glucose, 110 mg/l pyruvate, 4 mg/l nicotinamide, 4 mg/l pyridoxal hydrochloride, 4 mg/l thiamine and 0.4 riboflavin), supplemented with 10% fetal bovine serum (50 ml FCS, Mycoplex PAA Laboratories, Linz). On day 1, 2.7×10^6 cells are placed in 75 ml culture flasks (Falcon, Becton Dickinson, USA). On days 5, 10, 15, 20 and 25, the cells are trypsinized and counted; 2.7×10^6 cells are again spread out. The medium is changed on each day of trypsinization and on the third day after replating. Materials: Riboflavin (vitamin B2), thiamine (vitamin B1), ascorbic acid (vitamin C), uridine and ddC are purchased from Sigma (USA). The concentrations of uridine are given in the following tables; ddC is used in a concentration of 177 nM, which corresponds to the steady-state plasma levels of patients under HAART. A vitamin cocktail consisting of 7.125 mg/l riboflavin, 7.125 mg/l thiamine and 142.5 mg/l vitamin C is used. These pharmacological concentrations exceed the daily requirement by a factor of about one hundred, and meet the safe upper limits according to the recommendations of the European Union for these micro-nutrients. Quantification of mitochondrial DNA (mtDNA) by means of Southern Blot: The content of mtDNA is determined by a well-known Southern-Blot technique (C. T. Moraes et al., “Quantitative Defects of Mitochondrial DNA”, in: S. DiMauro and D. C. Wallace, “Mitochondrial DNA in Human Pathology”, Raven Press, New York 1993, Chapter 8, pages 97–108). Genomic DNA is extracted from the fatty tissue and cut with the restriction endonuclease Pvull. Five μg of the cut material are separated electrophoretically on a 0.8% agarose gel and transferred to a nylon membrane. The mtDNA is tested with a 12.9 kBp mtDNA fragment (which comprises the nucleotide positions 3470 and 16379 of human mtDNA (S. Anderson et al., Nature 9, 457–65 (1981), and which is marked by means stochastically binding primers with digoxigenin). In order to have an internal standard, digoxigen labeled nuclear DNA (nDNA), which hybridizes to the copy-number 18S-ribosomal DNA gene, serves as a second probe. The signals for mtDNA and nDNA are visualized, according to the recommendations of the manufacturer (Boehringer Mannheim, Germany), with a monoclonal antibody against digoxigenin, which is conjugated with alkaline phosphatase. The signal intensities are quantified by computer by means of standard software. The mtDNA content is expressed as the mtDNA/nDNA (M/N) ratio.

HepG2 cell line [2] = experiment: Intracellular lipids of HepG2 cells, Oil-Red-O staining
Method: Cell culture. The HepG2 cell line, a human hepatoma cell line, is taken from the American Type Culture Collection (ATCC No. HB-8065). It is cultured at 37° C. in a 5% CO2 atmosphere. The culture medium is Dulbecco's Modified Eagle Medium (DMEM-containing 4.5 g/l glucose, 110 mg/l pyruvate, 4 mg/l nicotinamide, 4 mg/l pyridoxal hydrochloride, 4 mg/l thiamine and 0.4 riboflavin), supplemented with 10% fetal bovine serum (50 ml FCS, Mycoplex PAA Laboratories, Linz). On day 1, 2.7×10^6 cells are placed in 75 ml culture flasks (Falcon, Becton Dickinson, USA). On days 5, 10, 15, 20 and 25, the cells are trypsinized and counted; 2.7×10^6 cells are again spread out. The medium is changed on each day of trypsinization and on the third day after replating. Materials: Riboflavin (vitamin B2), thiamine (vitamin B1), ascorbic acid (vitamin C), uridine and ddC are purchased from Sigma (USA). […] A vitamin cocktail consisting of 7.125 mg/l riboflavin, 7.125 mg/l thiamine and 142.5 mg/l vitamin C is used. These pharmacological concentrations exceed the daily requirement by a factor of about one hundred, and meet the safe upper limits according to the recommendations of the European Union for these micro-nutrients. Determining the intracellular lipids: Intracellular lipid droplets' are stained by means of Oil-Red-O (Sigma, USA). […]

HepG2 cell line [3] = experiment: Number of HepG2 cells on the day of trypsinization (survival) in the presence of ddC; details: ddC 177 nM; for Number of cells on the day of the trypsinization: HepG2, uridine 200 μM or vitamin cocktail where named
Method: (§1) Cell culture. The HepG2 cell line, a human hepatoma cell line, is taken from the American Type Culture Collection (ATCC No. HB-8065). It is cultured at 37° C. in a 5% CO2 atmosphere. The culture medium is Dulbecco's Modified Eagle Medium (DMEM-containing 4.5 g/l glucose, 110 mg/l pyruvate, 4 mg/l nicotinamide, 4 mg/l pyridoxal hydrochloride, 4 mg/l thiamine and 0.4 riboflavin), supplemented with 10% fetal bovine serum (50 ml FCS, Mycoplex PAA Laboratories, Linz). On day 1, 2.7×10^6 cells are placed in 75 ml culture flasks (Falcon, Becton Dickinson, USA). On days 5, 10, 15, 20 and 25, the cells are trypsinized and counted; 2.7×10^6 cells are again spread out. The medium is changed on each day of trypsinization and on the third day after replating. Materials: Riboflavin (vitamin B2), thiamine (vitamin B1), ascorbic acid (vitamin C), uridine and ddC are purchased from Sigma (USA). The concentrations of uridine are given in the following tables; ddC is used in a concentration of 177 nM, which corresponds to the steady-state plasma levels of patients under HAART. A vitamin cocktail consisting of 7.125 mg/l riboflavin, 7.125 mg/l thiamine and 142.5 mg/l vitamin C is used. These pharmacological concentrations exceed the daily requirement by a factor of about one hundred, and meet the safe upper limits according to the recommendations of the European Union for these micro-nutrients.

HepG2 cell line [4] = experiment: L-lactate in the culture medium of HepG2 cells, enzymatic test; details: ddC 177 nM; for Lactate values in the medium in percent of the control: control without ddC and without uridine, Day 0 = 100%
Method: as §1, with “micro-nutrients. Lactic acid: 1.5 ml of the remainder of the culture is removed in each case immediately before the trypsinization and the L-lactate in it is determined enzymatically with the lactate test-kit from Roche Diagnostics (order No.1822837) in an automatic analysis device (Roche/Hitachi 917) according to the recommendations of the manufacturer.” for “micro-nutrients.”

`Nc1ccn([C@H]2CC[C@@H](CO)O2)c(=O)n1` [ddC, dideoxycytidine] was tested, and the “Content of mitochondrial DNA, M/N-ratio in % of the control” value (“Content … M/N-ratio in % of the control” for short) ([1]; Day 0) was 100.0%, the “Content … M/N-ratio in % of the control” value ([1]; Day 5) was 25.6% and the “Content … M/N-ratio in % of the control” value ([1]; Day 10) was 25.1%. The “Content … M/N-ratio in % of the control” value ([1]; Day 15) was 11.5%, the “Content … M/N-ratio in % of the control” value ([1]; Day 20) was 8.3% and the “Content … M/N-ratio in % of the control” value ([1]; Day 25) was 8.4%. The “Intracellular lipids / steatotic changes, microscopic image” value (HepG2 cell line [2]; Day 20, Oil-Red-O, 177 nM ddC, 200 μM uridine as printed) was “clearly fewer cells are found, which however, are relatively large and red-colored”, the “Number of cells on the day of the trypsinization” value (“Number of cells” for short) (HepG2 cell line [3]; Day 5, 2.7×10^6 cells replated every 5 days) was 110.0 100,000s and the “Number of cells” value (HepG2 cell line [3]; Day 10) was 98.5 100,000s. For the same compound, the “Number of cells” value (HepG2 cell line [3]; Day 20) was 66.2 100,000s, the “Number of cells” value (HepG2 cell line [3]; Day 25) was 38.4 100,000s and the “Lactate values in the medium in percent of the control” value (HepG2 cell line [4]; Day 6) was 109.2%. The “Lactate values in the medium in percent of the control” value (HepG2 cell line [4]; Day 10) was 129.5%, the “Lactate values in the medium in percent of the control” value (HepG2 cell line [4]; Day 15) was 220.1% and the “Lactate values in the medium in percent of the control” value (HepG2 cell line [4]; Day 20) was 374.9%. For the same compound, the “Lactate values in the medium in percent of the control” value (HepG2 cell line [4]; Day 25) was 392.5%.

For `O=c1ccn([C@@H]2O[C@H](CO)[C@@H](O)[C@H]2O)c(=O)[nH]1` [uridine], the “Reduction of the mtDNA” value ([1]; HepG2, uridine 200 μM) was “diminishes the reduction of the mtDNA”, the “Compensation for the side effects of ddC (overall, see also Tables 1 to 3)” value (HepG2 cell line [2]; summary of lipid staining, cell number, mtDNA and lactate) was “can compensate for the side effects of ddC” and the “Survival of the HepG2-cells in the presence of ddC” value (HepG2 cell line [3]; uridine 200 μM, 25-day incubation) was “normalizes the survival of the HepG2-cells in the presence of ddC”. For the same compound, the “Production of lactic acid” value (HepG2 cell line [4]; HepG2, uridine 200 μM) was “diminished by the uridine”.
